The values that follow come from article PMC7467159, “Anaerobic fixed-target serial crystallography” (IUCrJ, 2020).

The target of one experiment is T1, VioC (Streptomyces vinaceus, UniProt Q6WZB0).
T1 construct: codon-optimized, pNIC28-Bsa4, E. coli T7 LysY; His-tag cleaved with TEV protease; SEC purified; Fe(II) enzyme, microcrystals
The experiment can be described thus: room-temperature serial crystallography. To be noted: Fe(II). It is filed as binding.

In another experiment the target is T2, IPNS (Aspergillus nidulans, UniProt P05326).
T2 construct: gene ipnA; recombinant, purified as in Roach et al; Fe(II) enzyme, microcrystals
T2 sequence (P05326 1-331): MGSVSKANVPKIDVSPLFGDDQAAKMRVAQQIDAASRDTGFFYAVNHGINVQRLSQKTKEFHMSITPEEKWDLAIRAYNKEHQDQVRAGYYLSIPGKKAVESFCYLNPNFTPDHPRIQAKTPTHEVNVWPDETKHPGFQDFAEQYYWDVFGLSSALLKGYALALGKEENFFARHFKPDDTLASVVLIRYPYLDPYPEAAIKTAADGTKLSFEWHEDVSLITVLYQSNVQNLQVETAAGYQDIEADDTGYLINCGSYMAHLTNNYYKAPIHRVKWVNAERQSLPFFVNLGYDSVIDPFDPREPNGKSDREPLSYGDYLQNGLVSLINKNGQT
The experiment can be described thus: room-temperature serial crystallography. It is filed as binding. Particulars: anaerobic, Fe(II); cysteinyl sulfur ligates Fe.

T1 sequence (Q6WZB0 whole entry): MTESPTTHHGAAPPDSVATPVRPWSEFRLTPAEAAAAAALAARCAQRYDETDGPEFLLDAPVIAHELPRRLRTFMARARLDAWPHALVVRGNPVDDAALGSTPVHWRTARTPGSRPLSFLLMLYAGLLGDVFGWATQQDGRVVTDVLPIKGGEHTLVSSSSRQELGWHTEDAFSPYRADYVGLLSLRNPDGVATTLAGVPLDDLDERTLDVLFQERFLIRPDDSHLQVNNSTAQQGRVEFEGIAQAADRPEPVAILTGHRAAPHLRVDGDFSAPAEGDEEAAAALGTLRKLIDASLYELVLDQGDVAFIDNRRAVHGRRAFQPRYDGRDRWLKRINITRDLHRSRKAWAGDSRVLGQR

On to `O=C(O)CCC(=O)O` [succinate], for which the room-temperature serial crystallography entry at VioC (formed in crystallo after 1 h air exposure, (3S)-OH-Arg, monodentate to Fe) is on record as “succinate is bound in a monodentate manner, also trans to His168”. `O=C(O)CCC(=O)C(=O)O` [2OG]: the room-temperature serial crystallography result on VioC (anaerobic, L-arginine, bidentate to Fe) was “the 2OG ligates the Fe in a bidentate manner via its oxalyl group”. As for `N=C(N)NCC[C@H](O)[C@H](N)C(=O)O` [(3S)-OH-Arg], the room-temperature serial crystallography result at VioC (formed in crystallo after 1 h air exposure, succinate, active site) is listed as “the (3S)-OH-Arg is positioned to coordinate Fe via its (3S)-hydroxyl group”.

Consider `CC(C)[C@@H](NC(=O)[C@H](CS)NC(=O)CCC[C@H](N)C(=O)O)C(=O)O` [ACV], for which the room-temperature serial crystallography entry on IPNS was “completed by a water molecule and the cysteinyl sulfur of the substrate ACV”. As to `N=C(N)NCCC[C@H](N)C(=O)O` [L-arginine], the room-temperature serial crystallography result on VioC (anaerobic, 2OG, active site) was “VioC:Fe:2OG:Arg substrate complex structure reported in this study (PDB entry 6y0n)”.
